Here are results for 12 molecules from patent US10035808B1, “Isatin peroxo compounds with antibacterial activities and a method of preparing the same” (SHAANXI UNIVERSITY OF SCIENCE AND TECHNOLOGY, priority 2018, dated 2018).

Experiment [1] concerns Enterotoxigenic Escherichia coli (ETEC). In words: Bacteriostatic circle test, ETEC. The following applies: bacteriostatic circle method; strain ETEC; DMSO negative control. The class given is cell-based. How it is done: (§1) The compounds of the present invention have been tested for antibacterial activity, and a bacteriostatic circle method was used to determine the antibacterial activity.
(§2) Test strains and medium: Enteropathogenic Escherichia coli (EPEC), Enterotoxigenic Escherichia coli (ETEC), Enteroinvasive Escherichia coli (EIEC), Enterohemorrhagic Escherichia coli (EHEC); beef peptone medium.
(§3) Preparation of test strains: (1) test strains were placed in culture medium in test tubes in an incubator (bacteria: 37° C., 24 hours; fungi: 28° C., 48 hours), and stored at 0-4° C.; (2) the test strains were inoculated with a small loop in test tubes containing 9 mL sterile water, mixing well to make suspensions, and adjusting the concentration to 10^6-10^7 cfu·mL^−1. The suspensions were used for bacteriostatic circle test.
(§4) Antibacterial activity determination: solvent dimethyl sulfoxide (DMSO) was used as a negative control, the sizes of antibacterial ring diameters indicated the strength of the antibacterial activities.

For experiment [2], the system named is all the four tested bacteria (EPEC, ETEC, EIEC, EHEC). In words: Bacteriostatic circle test, summary over all four tested bacteria. The class given is cell-based, Escherichia coli. Here is the method:
as §1, §2, §3, §4

In experiment [3] the test system is Enteropathogenic Escherichia coli (EPEC). In words: Bacteriostatic circle test, EPEC. In kind it is cell-based. The following applies: bacteriostatic circle method; strain EPEC; DMSO negative control. Here is the method:
as §1, §2, §3, §4

Experiment [4] relates to Enteroinvasive Escherichia coli (EIEC). In words: Bacteriostatic circle test, EIEC. The class given is cell-based. Particulars: bacteriostatic circle method; strain EIEC; DMSO negative control. How it is done: as §1, §2, §3, §4
Experiment [5] deals with Enterohemorrhagic Escherichia coli (EHEC). In words: Bacteriostatic circle test, EHEC. In kind it is cell-based. The following applies: bacteriostatic circle method; strain EHEC; DMSO negative control. How it is done: as §1, §2, §3, §4

As to `CC(=O)C1=C(C)OOc2[nH]c3ccccc3c21` [Compound 1, 1-(3-methyl-9H-[1,2]dioxino[3,4-b]indol-4-yl)ethanone], the “Circle Size” value in experiment [1] came out at 19 mm; in experiment [3], 20 mm; in experiment [4], 21 mm; in experiment [5], 23 mm. For the same molecule, in experiment [2], the “antibacterial activities (result in words)” value (from here on “antibacterial activities”) is given as “good antibacterial activities”.

On to `CC(=O)C1=C(C)OOc2[nH]c3ccc(Cl)cc3c21` [Compound 2, 1-(6-chloro-3-methyl-9H-[1,2]dioxino[3,4-b]indol-4-yl)ethanone], for which the “Circle Size” value is listed as 15.5 mm in experiment [1], 15 mm in experiment [3], 17 mm in experiment [4] and 16.5 mm in experiment [5]. Moreover, the “antibacterial activities” value in experiment [2] was “good antibacterial activities”.

As to `CC(=O)C1=C(C)OOc2[nH]c3ccc(C)cc3c21` [Compound 3, 1-(3,6-dimethyl-9H-[1,2]dioxino[3,4-b]indol-4-yl)ethanone], the “Circle Size” value in experiment [1] is reported as 18 mm; in experiment [3], 17.5 mm; in experiment [4], 17 mm; in experiment [5], 17 mm. In addition, the “antibacterial activities” value in experiment [2] is given as “good antibacterial activities”.

For the molecule `O=C(C1=C(c2ccccc2)OOc2[nH]c3ccccc3c21)c1ccccc1` [Compound 4, phenyl(3-phenyl-9H-[1,2]dioxino[3,4-b]indol-4-yl)methanone], the “Circle Size” value in experiment [1] was 11 mm; in experiment [3] it was 12 mm; in experiment [4] it was 11.5 mm; in experiment [5] it was 12.5 mm.

For `O=C(C1=C(c2ccccc2)OOc2[nH]c3ccc(Cl)cc3c21)c1ccccc1` [Compound 5, (6-chloro-3-phenyl-9H-[1,2]dioxino[3,4-b]indol-4-yl)(phenyl)methanone], the “Circle Size” value in experiment [1] came to 13.5 mm; in experiment [3] it was 13 mm; in experiment [4] it was 14 mm; in experiment [5] it was 14.5 mm.

Consider `Cc1ccc2[nH]c3c(c2c1)C(C(=O)c1ccccc1)=C(c1ccccc1)OO3` [Compound 6, (6-methyl-3-phenyl-9H-[1,2]dioxino[3,4-b]indol-4-yl)(phenyl)methanone], for which the “Circle Size” value is on record as 15.5 mm in experiment [1], 15 mm in experiment [3], 16 mm in experiment [4] and 16 mm in experiment [5].

`CC(=O)C1=C(C)OOc2[nH]c3ccc(F)cc3c21` [Compound 7, 1-(6-fluoro-3-methyl-9H-[1,2]dioxino[3,4-b]indol-4-yl)ethanone]: the “Circle Size” value was 17.5 mm in experiment [1], 17 mm in experiment [3], 16.5 mm in experiment [4] and 17 mm in experiment [5].

Regarding `CC(=O)C1=C(C)OOc2[nH]c3cc(Cl)ccc3c21` [Compound 8, 1-(7-chloro-3-methyl-9H-[1,2]dioxino[3,4-b]indol-4-yl)ethanone], the “Circle Size” value in experiment [1] amounted to 14 mm; in experiment [3], 13 mm; in experiment [4], 13.5 mm; in experiment [5], 13 mm.

For the molecule `CC(=O)C1=C(C)OOc2[nH]c3c(F)cccc3c21` [Compound 9, 1-(8-fluoro-3-methyl-9H-[1,2]dioxino[3,4-b]indol-4-yl)ethanone], the “Circle Size” value in experiment [1] is given as 15.5 mm; in experiment [3], 15 mm; in experiment [4], 14 mm; in experiment [5], 14.5 mm.

For the molecule `O=C(C1=C(c2ccccc2)OOc2[nH]c3ccc(F)cc3c21)c1ccccc1` [Compound 10, (6-fluoro-3-phenyl-9H-[1,2]dioxino[3,4-b]indol-4-yl)(phenyl)methanone], the “Circle Size” value in experiment [1] is given as 11 mm; in experiment [3], 10 mm; in experiment [4] it was 11.5 mm; in experiment [5], 10.5 mm.

Take `O=C(C1=C(c2ccccc2)OOc2[nH]c3cc(Cl)ccc3c21)c1ccccc1` [Compound 11, (7-chloro-3-phenyl-9H-[1,2]dioxino[3,4-b]indol-4-yl)(phenyl)methanone]: the “Circle Size” value is 12.5 mm in experiment [1], 12 mm in experiment [3], 11.5 mm in experiment [4] and 11.5 mm in experiment [5].

For `O=C(C1=C(c2ccccc2)OOc2[nH]c3c(F)cccc3c21)c1ccccc1` [Compound 12, (8-fluoro-3-phenyl-9H-[1,2]dioxino[3,4-b]indol-4-yl)(phenyl)methanon], the results for the “Circle Size” value in experiment [3], in experiment [4] and in experiment [5] were 14 mm, 14.5 mm and 15 mm, respectively.
